Results reported in US12516070B2, “Fused ring derivatives and use thereof in pharmacy” (priority 2020, dated 2026).
pEC50: −log10 of the molar value.

Columns and labels:
[1] = system: A/PR/8/34 I38T Mutation (H1N1); format: cell-based, influenza virus
[2] = system: A/WSN/33 I38T Mutation (H1N1); format: cell-based, influenza virus

Structure (SMILES): CN1C(=O)c2c(O)c(=O)ccn2N2[C@H](c3ccccc3Br)c3cc(F)c(F)cc3OCC[C@@H]12 [Compound 18A]
- pEC50 [1]: 6.93
- pEC50 [2]: 6.67
